Where two headings read alike, the source gives them in different places.
Columns and labels:
[1] = test system: Leishmania (L.) infantum promastigotes (strain MHOM/MA/67/ITMAP-263); experiment: organism not typed; assay type: cell-based; settings: read-out: Anti-Promastigote Activity (IC50)
[2] = in vitro; settings: BALB/c, mouse

## c1ccc2c(NCCCCCCCCCCCCNc3c4c(nc5ccccc35)CCCC4)c3c(nc2c1)CCCC3 [Compound 10.g]
[1]; 24 h
  IC50: 0.37 ± 0.06 µM
[2]
  cytotoxicity at 10 µM: 99.7%

## Clc1ccc2c(NCCCCCCCCCCCCNc3ccnc4cc(Cl)ccc34)ccnc2c1 [Compound 12, N^1,N^12-bis(7-chloroquinolin-4-yl)dodecane-1,12-diamine]
[1]; 24 h
  IC50: 0.6 ± 0.11 µM
[2]
  EC50: 11.7 ± 3.96 µM

## O=CNCCCCCCCCNc1c2c(nc3ccccc13)CCCC2 [Compound 8.f]
[1]; 24 h
  IC50: 1.55 ± 0.38 µM
[2]
  cytotoxicity at 10 µM: 91.2%

## O=CNCCCCCCNc1c2c(nc3ccccc13)CCCC2 [Compound 8.e]
[1]; 24 h
  IC50: 3.23 ± 0.41 µM
[2]
  cytotoxicity at 10 µM: 94.7%

## O=C1C=C(NCCCNc2c3c(nc4cc(Cl)ccc24)CCCC3)C(=O)C=C1NCCCNc1c2c(nc3cc(Cl)ccc13)CCCC2 [Compound 9.c]
[1]
  IC50: > 50 µM

## Clc1ccc2c(NCCNc3c4c(nc5cc(Cl)ccc35)CCCC4)c3c(nc2c1)CCCC3 [Compound 10.h]
other
  melting point: 89 to 95 °C
[1]
  IC50: 9.5 ± 0.51 µM

## CC(=O)NCCCCCCNc1c2c(nc3ccccc13)CCCC2 [Compound 7.a]
[1]
  IC50: > 100 µM

## O=CNNc1c2c(nc3ccccc13)CCCC2 [Compound 8.a]
[1]; 24 h
  IC50: > 50 µM

## O=C1C(Cl)=C(NCCCNc2c3c(nc4ccccc24)CCCC3)C(=O)C(Cl)=C1NCCCNc1c2c(nc3ccccc13)CCCC2 [Compound 9.b]
[1]
  IC50: > 100 µM

## O=C1C(Cl)=C(NCCCNc2c3c(nc4cc(Cl)ccc24)CCCC3)C(=O)C(Cl)=C1NCCCNc1c2c(nc3cc(Cl)ccc13)CCCC2 [Compound 9.d]
[1]
  IC50: 2.17 ± 0.45 µM

## O=CNCCCNc1c2c(nc3ccccc13)CCCC2 [Compound 8.d]
[1]; 24 h
  IC50: 14.2 ± 0.98 µM
[2]
  cytotoxicity at 50 µM: 100%

## CC(=O)NCCCCCCNc1c2c(nc3cc(Cl)ccc13)CCCC2 [Compound 7.d]
[1]
  IC50: > 100 µM

## Clc1ccc2c(NCCCCCCCCCCNc3c4c(nc5cc(Cl)ccc35)CCCC4)c3c(nc2c1)CCCC3 [Compound 10.m]
[1]
  IC50: 1.92 ± 0.21 µM
[2]
  cytotoxicity at 10 µM: 99%

## O=CNCNc1c2c(nc3ccccc13)CCCC2 [Compound 8.b]
[1]; 24 h
  IC50: 5.64 ± 0.65 µM
[2]
  cytotoxicity at 10 µM: 88.1%

## c1ccc2c(NCCCCCCCCNc3c4c(nc5ccccc35)CCCC4)c3c(nc2c1)CCCC3 [Compound 10.e]
[1]; 24 h
  IC50: 2.99 ± 0.98 µM
[2]
  cytotoxicity at 10 µM: 99.5%

## Clc1ccc2c(Cl)c3c(nc2c1)CCCC3 [Compound 5.b]
[1]; 24 h
  IC50: > 100 µM

## O=CNCCNc1c2c(nc3ccccc13)CCCC2 [Compound 8.c]
[1]; 24 h
  IC50: 1.69 ± 0.22 µM
[2]
  cytotoxicity at 10 µM: 99.5%

## CC(=O)NCCCCCCCCCCNc1c2c(nc3cc(Cl)ccc13)CCCC2 [Compound 7.f]
[1]; 24 h
  IC50: 11.2 ± 0.66 µM
[2]
  cytotoxicity at 10 µM: 77.5%

## CC(=O)NCCCCCCCCNc1c2c(nc3ccccc13)CCCC2 [Compound 7.b]
[1]
  IC50: > 100 µM

## c1ccc2c(NCCCCCCCCCCNc3c4c(nc5ccccc35)CCCC4)c3c(nc2c1)CCCC3 [Compound 10.f]
[1]; 24 h
  IC50: 0.94 ± 0.33 µM
[2]
  cytotoxicity at 10 µM: 99.5%

## Clc1ccc2c(NCCCNc3c4c(nc5cc(Cl)ccc35)CCCC4)c3c(nc2c1)CCCC3 [Compound 10.i]
[1]
  IC50: 8.58 ± 0.47 µM
[2]
  cytotoxicity at 10 µM: 90.4%

## Clc1ccc2c(NCCCCCCCCCCCCNc3c4c(nc5cc(Cl)ccc35)CCCC4)c3c(nc2c1)CCCC3 [Compound 10.n]
[1]
  IC50: 3.5 ± 0.63 µM
[2]
  cytotoxicity at 50 µM: 92.5%

## Clc1ccc2c(NCCCCCNc3c4c(nc5cc(Cl)ccc35)CCCC4)c3c(nc2c1)CCCC3 [Compound 10.k]
[1]
  IC50: 5.26 ± 4.89 µM
[2]
  cytotoxicity at 10 µM: 87.5%

## c1ccc2c(NCCCCCNc3c4c(nc5ccccc35)CCCC4)c3c(nc2c1)CCCC3 [Compound 10.d]
[1]; 24 h
  IC50: > 50 µM

## CC(=O)NCCCCCCCCNc1c2c(nc3cc(Cl)ccc13)CCCC2 [Compound 7.e]
[1]; 24 h
  IC50: > 100 µM

## C[C@@H]1[C@H](O)[C@@H](C)/C=C/C=C/C=C/C=C/C=C/C=C/C=C/[C@H](O[C@@H]2O[C@H](C)[C@@H](O)[C@H](N)[C@@H]2O)C[C@@H]2O[C@](O)(C[C@@H](O)C[C@@H](O)[C@H](O)CC[C@@H](O)C[C@@H](O)CC(=O)O[C@H]1C)C[C@H](O)[C@H]2C(=O)O [Amphotericin B, reference compound]
[1]; 24 h
  IC50: 0.17 ± 0.09 µM
[2]
  EC50: 3.1 ± 0.6 µM

## CC(=O)NCCCCCCCCCCNc1c2c(nc3ccccc13)CCCC2 [Compound 7.c]
[1]; 24 h
  IC50: > 100 µM

## Clc1ccc2c(NCCCCNc3c4c(nc5cc(Cl)ccc35)CCCC4)c3c(nc2c1)CCCC3 [Compound 10.j]
[1]
  IC50: 8.56 ± 1.56 µM
[2]
  EC50: 9.02 ± 1.79 µM

## Clc1c2c(nc3ccccc13)CCCC2 [Compound 5.a]
[1]; 24 h
  IC50: > 100 µM
